Assay results: US10106523B2, “Amide compound” (ASTELLAS PHARMA INC., priority 2014, dated 2018)

Assays:
[1] = target: rat EP4 receptor (Rattus norvegicus, UniProt P43114); test: Evaluation test of rat EP4 receptor affinity ([3H]PGE2 binding, membrane fraction of HEK-293 cells); set-up: expressed in transfected cells; host or cells: HEK-293 (ATCC CRL-1573), transient; settings: 0.3 nmol/L [3H]PGE2, rat EP4 cell membrane fraction, room temperature 1 hour; read-out: Ki value with respect to the rat EP4 receptor
rat EP4 receptor, sequence (P43114 whole entry): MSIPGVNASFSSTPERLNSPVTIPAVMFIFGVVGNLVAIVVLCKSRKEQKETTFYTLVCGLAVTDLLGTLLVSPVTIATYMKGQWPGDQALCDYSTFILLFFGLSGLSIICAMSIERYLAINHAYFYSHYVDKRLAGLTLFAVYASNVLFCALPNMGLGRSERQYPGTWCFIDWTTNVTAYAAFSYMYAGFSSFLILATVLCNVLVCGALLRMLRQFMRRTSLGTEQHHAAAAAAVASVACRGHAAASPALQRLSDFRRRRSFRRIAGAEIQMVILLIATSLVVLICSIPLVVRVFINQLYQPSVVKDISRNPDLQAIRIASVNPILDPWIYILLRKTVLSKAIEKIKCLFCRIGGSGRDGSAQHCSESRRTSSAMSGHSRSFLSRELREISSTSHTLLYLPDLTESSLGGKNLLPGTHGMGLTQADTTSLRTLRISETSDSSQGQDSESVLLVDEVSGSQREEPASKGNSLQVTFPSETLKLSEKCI
Experimental: Test Example 1: Evaluation Test of Rat EP4 Receptor Affinity
Construction of Rat EP4 Receptor Expressing Vector:
A rat EP4 receptor gene (GenBank accession No.: NM_032076.1) was transfected into an expression vector pcDNA3.1-V5-His-TOPO (Invitrogen Inc.).
Transient Expression of Rat EP4 Receptor:
The expression vector of a rat EP4 receptor was transfected into an HEK-293 cell (ATCC No.: CRL-1573). The transfection was carried out according to an appended instruction, using Lipofectoamine (registered trademark) 2000 reagent (Invitrogen Inc.). After the transfection, the cells were cultured in an α-MEM culture medium for 20 to 24 hours.
Preparation of Membrane Fraction:
The culture medium was removed by aspiration, 10 mL of cooled phosphate buffered saline (PBS) was added thereto per 15 cm dish, and the cells were scraped using a cell scraper (Sumitomo Bakelite). […]
[^3H]PGE2 and a cell membrane fraction were diluted with an assay buffer (50 mmol/L HEPES-NaOH, 10 mmol/L MgCl2, pH 7.5), and the test compound and unlabeled PGE2 (Cayman) were diluted with DMSO and the assay buffer. […] The radioactivity was measured using a TopCount (Perkin Elmer). […] The specific binding amount was determined by subtracting the non-specific binding amount from the total binding amount. The Ki value was calculated according to a standard method.

[2] = tested on: 5/6 nephrectomy rats with chronic renal failure; test: Effect on renal function of 5/6 nephrectomy (5/6 Nx) rats with chronic renal failure; assay type: in vivo, rat; settings: 5/6 Nx Wistar rats, 0.2 mg/kg po once per day for 6 weeks
Experimental: Test Example 8: Test for Investigation of Effect on Renal Function of 5/6 Nephrectomy (5/6 Nx) of Rats with Chronic Renal Failure
Wistar rats (male, 8-Week-old) were used for the test. Two-thirds of the left kidney was removed under pentobarbital anesthesia, and after 1 week, the entire right kidney was nephrectomized (5/6 Nx). After 2 weeks from 5/6 Nx, the protein concentrations in urine samples obtained by urine collection for 24 hours were measured using a Bio-Rad Protein assay kit, and the creatinine concentration in urine was measured using Determiner L CRE (Kyowa Medex Co., Ltd.)). The urinary protein-creatinine ratio (UPCR) was calculated, and a group (n=12) not treated with the test compound and a group (n=12) treated with the test compound were allocated without a bias in UPCR. The test compound suspended in a 0.5% MC solution was orally administered to the group treated with the test compound at a dose of 0.2 mg/kg once per day for 6 weeks (5 mL/kg). […] Urine was collected for 24 hours from the completion of the final administration, and using the calculated UPCR as an indicator, the improvement effect of the test compound on the nephropathy of the rat with chronic renal failure was investigated. The inhibitory rate of UPCR of the group treated with the test compound when the UPCR value of the group not treated with the test compound was taken as 100% was determined.

`Cc1nn(Cc2cc3ccccc3cn2)c(C(=O)N[C@@H](C)c2ccc(C(=O)O)cc2)c1Br` [Compound A, 4-[(1S)-1-({[4-bromo-1-(isoquinolin-3-ylmethyl)-3-methyl-1H-pyrazol-5-yl]carbonyl}amino)ethyl]benzoic acid] was tested, and the Ki [1] was 874 pM and the “Inhibitory rate of UPCR (urinary protein-creatinine ratio)” value [2] was 47%.
